Test results reported in patent US20150073154A1, “Discrete PEG Based Dyes” (EquIP, LLC, priority 2013, published 2015).
Several values for one entry are separate records, joined by “and”; a condition that tells them apart may be missing. Identical values can stand only once. Like-named read-outs stand apart in the source and are kept apart here.

Legend:
[1] = Solubility of ICG-NHS (no dPEG); format: physicochemical; conditions: 10% DMAC (our work)
From the text: Soluble in 10% DMSO (lit) or DMAC (our work)

[2] = Behaviour of unreacted reagent on spin columns in PBS (aggregation); format: physicochemical; conditions: no MAG control
From the text: Reacted with MAG but couldn't separate unreacted reagent on spin columns in PBS

[3] = 10% DMSO (lit); cited from earlier work
[4] = biological target: Human Serum Albumin (HSA) (Homo sapiens, UniProt P02768); test: Fluorescence increase on addition to 4% HSA solution (HSA complex formation); format: binding
Procedure: ICG is a hydrophobic molecule that forms a tight complex with Human Serum Albumin (HSA). The fluorescence of ICG increased ˜10 fold, as expected, when it was added to a 4% HSA solution. When ICG is conjugated to a protein, it loses its ability to form tight HAS complexes, as confirmed in our experiments where the fluorescence of ICG-IgG (no dPEG) increased by only a factor of ˜2 when added to 4% HSA. We hypothesized that ICG might still be able to bind to HSA when it was bound to IgG through a dPEG12 linker.

[5] = Conjugation of ICG reagents with IgG: maximal ICG incorporation without losing the protein; format: physicochemical; conditions: reaction with MAG in 10% DMAC
From the text: The maximal number of ICGs using this reagent that can be incorporated into an IgG without losing the protein is 4-5 ICG/IgG (FIG. 18). A similar number of ICGs from ICG-NHS, the reagent without dPEG, can be substituted into IgG (FIG. 19).
c. Conjugation of ICG-dPEG12-NHS with MAG (Mouse Anti-Goat IgG Antibody)
MAG reacted with different concentrations of ICG-dPEG12-NHS in 10% DMAC
Product purified over two G50 spin columns in PBS
[IgG] and ICG/IgG molar ratios determined from A (770 nm) and A (280) nm
Lose most of protein when [ICG-dPEG12-NHS] in the reaction is ≧0.2 mM
Highest incorporation: ICG/IgG˜5

Sequence of Human Serum Albumin (HSA) (P02768 25-609): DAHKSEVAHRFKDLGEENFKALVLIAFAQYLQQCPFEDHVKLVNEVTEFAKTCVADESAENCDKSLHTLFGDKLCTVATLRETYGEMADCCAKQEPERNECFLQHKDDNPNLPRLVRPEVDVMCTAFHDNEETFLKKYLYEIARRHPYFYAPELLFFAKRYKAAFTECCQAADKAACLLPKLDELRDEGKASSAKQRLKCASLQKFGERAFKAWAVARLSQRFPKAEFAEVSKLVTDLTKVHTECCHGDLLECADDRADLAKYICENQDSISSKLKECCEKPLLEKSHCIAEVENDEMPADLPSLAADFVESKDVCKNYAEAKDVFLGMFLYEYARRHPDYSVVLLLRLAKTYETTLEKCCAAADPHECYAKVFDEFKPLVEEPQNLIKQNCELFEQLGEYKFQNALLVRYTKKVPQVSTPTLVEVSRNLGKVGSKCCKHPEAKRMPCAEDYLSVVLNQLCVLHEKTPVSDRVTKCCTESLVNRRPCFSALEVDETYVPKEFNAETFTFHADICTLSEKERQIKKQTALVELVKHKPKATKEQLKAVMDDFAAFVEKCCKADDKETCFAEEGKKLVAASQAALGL

CC1(C)C(/C=C/C=C/C=C/C=C2\N(CCCCS(=O)(=O)[O-])c3ccc4ccccc4c3C2(C)C)=[N+](CCCCCC(=O)ON2C(=O)CCC2=O)c2ccc3ccccc3c21 [ICG-NHS]
solubility [1]: Soluble
aggregation of unreacted reagent [2]: apparently forms aggregates
solubility [3]: Soluble

CC1(C)C(/C=C/C=C/C=C/C=C2\N(CCCCS(=O)(=O)[O-])c3ccc4ccccc4c3C2(C)C)=[N+](CCCCS(=O)(=O)[O-])c2ccc3ccccc3c21.[Na+] [ICG]
increase of fluorescence when added to 4% HSA [4]: ~10 fold

dPEG12-NHS ester)-1,1-dimethyl-benzoindoliden-hepta-1,3,5-trienyl-(1,1-dimethyl-benzoindolium butane sulfonate) [ICG-dPEG12-NHS]
maximal number of ICGs that can be incorporated into an IgG without losing the protein / highest incorporation [5]: 4-5 ICG/IgG and ~5 ICG/IgG
